Experimental data reported in patent US20250179065A1, “HDAC6 INHIBITORS AND USES THEREOF” (Eikonizo Therapeutics, Inc., priority 2022, published 2025).
pIC50: −log10 of the molar value.

Assays:
Full length Human HDAC6 = Full length Human HDAC6 (Homo sapiens (Human), UniProt Q9UBN7); test: Caliper endpoint assay for HDAC enzymatic activity (HDAC6); format: biochemical; details: for pIC50: in vitro enzymatic, 30 min pre-incubation, 1 μM FAM-RHKK(Ac)-NH2 substrate; for Selectivity (6 v 8) (fold): ratio of HDAC8 IC50/HDAC6 IC50
Chain of Full length Human HDAC6 (Q9UBN7 whole entry): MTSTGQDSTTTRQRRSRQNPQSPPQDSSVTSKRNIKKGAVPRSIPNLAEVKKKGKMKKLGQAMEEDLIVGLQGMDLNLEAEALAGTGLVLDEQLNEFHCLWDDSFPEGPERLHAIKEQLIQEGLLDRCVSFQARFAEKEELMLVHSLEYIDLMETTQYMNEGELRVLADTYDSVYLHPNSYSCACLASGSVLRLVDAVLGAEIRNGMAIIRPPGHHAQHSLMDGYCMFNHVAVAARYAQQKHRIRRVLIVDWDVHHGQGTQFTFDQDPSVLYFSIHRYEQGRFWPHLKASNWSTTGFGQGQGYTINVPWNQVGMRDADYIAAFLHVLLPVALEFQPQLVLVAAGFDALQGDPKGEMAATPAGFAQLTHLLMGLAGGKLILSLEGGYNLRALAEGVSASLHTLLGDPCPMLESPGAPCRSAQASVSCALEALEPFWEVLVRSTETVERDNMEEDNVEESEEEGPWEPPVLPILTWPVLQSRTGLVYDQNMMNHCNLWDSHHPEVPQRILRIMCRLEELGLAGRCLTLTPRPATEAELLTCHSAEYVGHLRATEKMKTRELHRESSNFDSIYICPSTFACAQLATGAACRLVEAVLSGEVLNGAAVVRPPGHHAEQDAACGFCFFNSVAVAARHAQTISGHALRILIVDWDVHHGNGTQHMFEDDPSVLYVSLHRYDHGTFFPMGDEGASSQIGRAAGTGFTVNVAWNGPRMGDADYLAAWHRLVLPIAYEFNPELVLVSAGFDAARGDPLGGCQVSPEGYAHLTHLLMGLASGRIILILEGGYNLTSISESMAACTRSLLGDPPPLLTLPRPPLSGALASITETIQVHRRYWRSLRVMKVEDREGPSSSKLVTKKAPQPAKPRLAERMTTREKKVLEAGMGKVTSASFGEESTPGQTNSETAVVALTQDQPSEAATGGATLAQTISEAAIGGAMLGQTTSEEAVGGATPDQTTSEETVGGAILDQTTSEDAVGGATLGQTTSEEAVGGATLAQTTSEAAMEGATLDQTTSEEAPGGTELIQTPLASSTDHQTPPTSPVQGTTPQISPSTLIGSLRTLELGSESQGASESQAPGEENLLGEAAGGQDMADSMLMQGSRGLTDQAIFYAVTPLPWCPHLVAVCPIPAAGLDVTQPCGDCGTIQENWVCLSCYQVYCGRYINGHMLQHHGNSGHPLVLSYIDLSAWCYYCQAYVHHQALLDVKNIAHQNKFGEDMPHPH

Full length Human HDAC8 = Full length Human HDAC8 (Homo sapiens (Human), UniProt Q9BY41); test: Caliper endpoint assay for HDAC enzymatic activity (HDAC8); format: biochemical; details: in vitro enzymatic, 30 min pre-incubation, 1 μM FAM-RHKK(TFAc)-NH2 substrate
Chain of Full length Human HDAC8 (Q9BY41 whole entry): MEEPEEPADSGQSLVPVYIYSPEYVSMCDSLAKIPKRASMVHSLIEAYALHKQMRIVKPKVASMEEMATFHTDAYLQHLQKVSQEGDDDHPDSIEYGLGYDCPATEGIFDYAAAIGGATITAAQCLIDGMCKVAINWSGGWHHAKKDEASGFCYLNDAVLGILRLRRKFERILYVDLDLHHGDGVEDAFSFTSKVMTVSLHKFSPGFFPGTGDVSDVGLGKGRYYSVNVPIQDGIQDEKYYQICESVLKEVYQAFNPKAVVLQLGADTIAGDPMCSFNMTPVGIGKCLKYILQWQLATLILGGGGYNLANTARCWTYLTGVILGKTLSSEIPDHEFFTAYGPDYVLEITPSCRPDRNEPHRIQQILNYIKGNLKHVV

Row | Structure (SMILES) | pIC50 (Full length Human HDAC6) | Selectivity (6 v 8) (fold) (Full length Human HDAC6) | pIC50 (Full length Human HDAC8)
1 | O=C(NO)c1cnc2c(c1)CCN(C1CC3(CCCNC3)C1)C2 (single isomer, unassigned) [Compound 341] |  |  | 4.00 to 5.00
2 | O=C(NO)c1cnc2c(c1)CCN(C1CC3(CCCNC3)C1)C2 (single isomer, unassigned) [Compound 342] |  |  | 4.00 to 5.00
3 | CN1CCC[C@]2(C1)C[C@@H](N1CCc3cc(C(=O)NO)cnc3C1)C2 (single isomer, unassigned) [Compound 343] | 6.00 to 7.00 | III (III: >10-100) | 5.00 to 6.00
4 | CN1CCC[C@]2(C1)C[C@H](N1CCc3cc(C(=O)NO)cnc3C1)C2 (single isomer, unassigned) [Compound 344] | 6.00 to 7.00 | III (III: >10-100) | 5.00 to 6.00
5 | CN1CCC2(CC1)CC(N1CCc3cc(C(=O)NO)cnc3C1)C2 [Compound 198, N-hydroxy-7-(7-methyl-7-azaspiro[3.5]nonan-2-yl)-5,6,7,8-tetrahydro-1,7-naphthyridine-3-carboxamide] | 6.00 to 7.00 | III (III: >10-100) | 5.00 to 6.00
6 | CC(=O)N1CCC2(CC1)CC(N1CCc3cc(C(=O)NO)cnc3C1)C2 [Compound 199, 7-(7-acetyl-7-azaspiro[3.5]nonan-2-yl)-N-hydroxy-5,6,7,8-tetrahydro-1,7-naphthyridine-3-carboxamide] | 6.00 to 7.00 | III (III: >10-100) | 4.00 to 5.00
7 | O=C(NO)c1cnc2c(c1)CCN(C1CC3(CNC3)C1)C2 [Compound 289] | 6.00 to 7.00 | III (III: >10-100) | 4.00 to 5.00
8 | CN1CCC2(CCC(N3CCc4cc(C(=O)NO)cnc4C3)C2)CC1 (centres unmarked) [Compound 417] | 6.00 to 7.00 | III (III: >10-100) | 5.00 to 6.00
9 | O=C(NO)c1cc2c(cn1)CN(C1CC3(CCCCC3)C1)CC2 [DDD] | 5.00 to 6.00 | III (III: >10-100) | 4.00 to 5.00
10 | O=C(NO)c1ccc2c(n1)CCN(C1CC3(CCCCC3)C1)C2 [EEE] | 6.00 to 7.00 | V (V: >1000) | < 4.00
11 | O=C(NO)c1ncc2c(n1)CCN(C1CC3(CCCCC3)C1)C2 [FFF, N-hydroxy-6-(spiro[3.5]nonan-2-yl)-5,6,7,8-tetrahydropyrido[4,3-d]pyrimidine-2-carboxamide] | < 4.00 | II (II: >1-10) | < 4.00

Further lines, results first:

Row | pIC50 (Full length Human HDAC6) | Selectivity (6 v 8) (fold) (Full length Human HDAC6) | pIC50 (Full length Human HDAC8) | Structure (SMILES)
12 | 6.00 to 7.00 | III (III: >10-100) | 4.00 to 5.00 | O=C(NO)c1cnc2c(c1)CCN([C@@H]1CCCC3(CCC3)C1)C2 (single isomer, unassigned) [Compound 194]
13 | 7.00 to 9.00 | IV (IV: >100-1000) | 5.00 to 6.00 | O=C(NO)c1cnc2c(c1)CCN([C@H]1CCCC3(CCC3)C1)C2 (single isomer, unassigned) [Compound 195]
14 | 7.00 to 9.00 | IV (IV: >100-1000) | 4.00 to 5.00 | O=C(NO)c1cnc2c(c1)CCN([C@H]1CCC3(CCC3)C1)C2 (single isomer, unassigned) [Compound 383]
15 | 7.00 to 9.00 | IV (IV: >100-1000) | 4.00 to 5.00 | O=C(NO)c1cnc2c(c1)CCN(CC13CC4CC(CC(C4)O1)C3)C2 [Compound 14]
16 | 7.00 to 9.00 | IV (IV: >100-1000) | 4.00 to 5.00 | O=C(NO)c1cnc2c(c1)CCN(C1CC3(CCCCC3)C1)C2 [Compound 16, N-hydroxy-7-(spiro[3.5]nonan-2-yl)-5,6,7,8-tetrahydro-1,7-naphthyridine-3-carboxamide]
17 | 6.00 to 7.00 | III (III: >10-100) | 5.00 to 6.00 | O=C(NO)c1cnc2c(c1)CCN(C1CC3(CCOCC3)C1)C2 [Compound 179, N-hydroxy-7-(7-oxaspiro[3.5]nonan-2-yl)-5,6,7,8-tetrahydro-1,7-naphthyridine-3-carboxamide]
18 | 7.00 to 9.00 | IV (IV: >100-1000) | 5.00 to 6.00 | O=C(NO)c1cnc2c(c1)CCN(C1CC3(CCCC3)C1)C2 [Compound 183, N-hydroxy-7-(spiro[3.4]octan-2-yl)-5,6,7,8-tetrahydro-1,7-naphthyridine-3-carboxamide]
19 | 6.00 to 7.00 | IV (IV: >100-1000) | 4.00 to 5.00 | O=C(NO)c1cnc2c(c1)CCN([C@H]1C[C@@]3(CCOC3)C1)C2 [Compound 188, N-hydroxy-7-((2r,4r)-6-oxaspiro[3.4]octan-2-yl)-5,6,7,8-tetrahydro-1,7-naphthyridine-3-carboxamide]
20 | 6.00 to 7.00 | IV (IV: >100-1000) | 4.00 to 5.00 | O=C(NO)c1cnc2c(c1)CCN([C@H]1C[C@]3(CCOC3)C1)C2 [Compound 189, N-hydroxy-7-((2s,4s)-6-oxaspiro[3.4]octan-2-yl)-5,6,7,8-tetrahydro-1,7-naphthyridine-3-carboxamide]
21 | 7.00 to 9.00 | IV (IV: >100-1000) | 5.00 to 6.00 | O=C(NO)c1cnc2c(c1)CCN(C1CCC3(CCC3)CC1)C2 [Compound 192, N-hydroxy-7-(spiro[3.5]nonan-7-yl)-5,6,7,8-tetrahydro-1,7-naphthyridine-3-carboxamide]
22 | 6.00 to 7.00 | III (III: >10-100) | 4.00 to 5.00 | O=C(NO)c1cnc2c(c1)CCN(C1CC3(CCNCC3)C1)C2 [Compound 197, N-hydroxy-7-(7-azaspiro[3.5]nonan-2-yl)-5,6,7,8-tetrahydro-1,7-naphthyridine-3-carboxamide]
